Test results as given in patent US20090203634A1, “Compositions and Uses of Amooranin Compounds” (Variety Children's Hospital d/b/a Miami Children's Hospital, priority 2005, published 2009).
Converted amounts (≈) assume the structure as drawn. Where a name gives a salt, the structure may show the parent alone. Read-outs that look alike come from different tables or passages of the source. Marks after values point to notes of the source that are not given here.

Assays:
[1] = system: MCF-7; assay: TUNEL assay of DNA fragmentation; type: cell-based, human
Experimental: (§1) Analysis of DNA fragmentation by agarose gel electrophoresis. To assess the pattern of DNA cleavage caused by AMR, agarose gel electrophoresis was performed as described by Cohen and Duke (Cohen, J. J. and Duke, R. C. J Immunol, 1984, 132:38-42). Briefly, control and drug-treated cells (2×10^6 cells) were lysed with 0.5 ml lysis buffer containing 0.2% Triton X-100 at room temperature for 30 minutes. The supernatant fractions were collected by centrifugation at 12,000×g for 30 minutes. The DNA in these fractions was precipitated overnight with 100 μl 5 M sodium chloride and 0.5 ml 2-isopropanol at −20° C. The DNA was dissolved in 20 μl of 10 mM Tris-HCl (pH 7.4) and 1 mM EDTA buffer. RNase (10 units) was added to the samples before incubating at 60° C. for 1 hour. An equal volume of loading buffer was added afterwards and the samples were subjected to electrophoresis on a 2% agarose gel in Tris borate buffer at 50 V for 3 hours. The agarose gel was stained with ethidium bromide, and DNA fragmentation pattern was visualized in a UV transilluminator. AMR-induced DNA fragmentation was also analyzed by TUNEL assay using in situ cell detection kit according to manufacturer's instructions. Briefly, cells were permeabilized in a solution containing 0.1% Triton X-100 and 0.1% (w/v) sodium citrate for 2 minutes. After washing in PBS, cells were incubated with label solution and terminal transferase. Cells were incubated without terminal deoxynucleotidyl transferase was used as negative control. DNase (1 μg/ml) treated cells incubated with label solution in the presence of terminal deoxynucleotidyl transferase (TUNEL reaction mixture) was used as positive control and the details of TUNEL assay have been described earlier (Ramachandran, C. et al. Anticancer Res, 1997, 17:3369-3376).

[2] = system: MCF-7/TH; assay: TUNEL assay of DNA fragmentation; type: cell-based, human
Experimental: as §1

[3] = system: MCF-10A; assay: TUNEL assay of DNA fragmentation; type: cell-based, human
Experimental: as §1

[4] = system: CEM; assay: MTT cytotoxicity assay (Examples 1-5); type: cell-based, human
From the text: (§2) Cytotoxicity Assay (Examples 1-5). […] Cell proliferation kit I (MTT) from Roche Diagnostics GmbH (Indianapolis, Ind.) was used for cytotoxicity assays and manufacturers protocol was followed for the assay.

[5] = system: CEM/VLB; assay: MTT cytotoxicity assay (Examples 1-5); type: cell-based, human
From the text: as §2

[6] = system: SW620/Ad-300; assay: MTT cytotoxicity assay (Examples 1-5); type: cell-based, human; settings: for IC50: mean ± SD (n = 3)
From the text: as §2

[7] = system: SW620 human tumor xenografts; assay: Xenograft studies with AMR in nude mice; type: in vivo; settings: for Therapeutic ratio: Therapeutic Ratio = 100 - Tumor Growth Rate Index (GRI)
Experimental: Xenograft studies with AMR in nude mice. Male athymic nude (nu/nu) mice of the BALB/c strain (4-5 weeks old) were purchased from Taconic Labs, NY. SW620 colon carcinoma cells (10^6/site) in 0.1 ml of Hank's balanced salt solution were injected subcutaneously into the right flank of the nude mice using a 21 gauge needle. When the tumors reached approximately 0.5 cm^3 size in volume (usually 14 days), chemotherapy with AMR was started involving six animals in each group with almost similar size tumors. […] AMR was dissolved in 1:1 mixture of Cremophor EL and ethanol for administration and the control treatments were doxorubicin dissolved in phosphate dissolved saline and saline alone (0 mg/kg). Tumor size (length and width) was recorded on every fifth day of treatment along with body weight and survival data. Tumor volume was calculated using the following formula: […]
Tumor growth rate was calculated as mean V1/V0 where V1 is the volume on the evaluation day of treatment effect and V0 is that on the first day of treatment. The growth rate index and therapeutic index estimates were calculated using the following formulae:
Therapeutic Ratio=100—Tumor Growth Rate Index (GRI)

[8] = system: MCF-7; assay: Cell cycle analysis by flow cytometry; type: cell-based, human; settings: 1 μg/ml AMR, one range printed for MCF-7 and MCF-7/TH together
Experimental: (§3) Cell cycle analysis. The number of cells in each stage of the cell cycle was monitored by flow cytometric analysis of cellular DNA content after staining with 1 mg/ml propidium iodide (Chen, G. et al. Cancer Res, 1993, 53:2544-2547). Data was analyzed to determine the percentage of cells at each phase of the cell cycle (G0+G1, S, and G2+M).

[9] = system: MCF-7/TH; assay: Cell cycle analysis by flow cytometry; type: cell-based, human; settings: 1 μg/ml AMR, one range printed for MCF-7 and MCF-7/TH together
Experimental: as §3

[10] = system: MCF-10A; assay: Cell cycle analysis by flow cytometry; type: cell-based, human; settings: 1 μg/ml AMR
Experimental: as §3

[11] = system: MCF-7; assay: DNA fragmentation by agarose gel electrophoresis; type: cell-based, human
Experimental: as §1

[12] = system: MCF-7/TH; assay: DNA fragmentation by agarose gel electrophoresis; type: cell-based, human
Experimental: as §1

[13] = system: MCF-10A; assay: DNA fragmentation by agarose gel electrophoresis; type: cell-based, human
Experimental: as §1

[14] = system: CEM; assay: DNA histogram analysis of cell cycle distribution; type: cell-based, human; settings: AMR 0-2.5 μg/ml, 48 hours, up from 18.0% without AMR
Experimental: (§4) DNA Histogram Analysis. Following drug exposure for 48 hours, cells were centrifuged and resuspended in propidium iodide-hypotonic citrate solution for 1 hour before flow cytometric analysis of cell cycle distribution (Ramachandran, C. et al. Biochem Pharmacol, 1995, 49:545-552).

[15] = system: CEM/VLB; assay: DNA histogram analysis of cell cycle distribution; type: cell-based, human; settings: AMR 0-2.5 μg/ml, 48 hours, up from 18.0% without AMR
Experimental: as §4

[16] = system: SW620/Ad-300; assay: DNA histogram analysis of cell cycle distribution; type: cell-based, human; settings: AMR 0-2.5 μg/ml, 48 hours, up from 15.6% without AMR
Experimental: as §4

[17] = system: SW620; assay: DNA histogram analysis of cell cycle distribution; type: cell-based, human; settings: AMR 0-2.5 μg/ml, 48 hours, up from 12.5% without AMR
Experimental: as §4

[18] = system: MCF-7; assay: MTT cytotoxicity assay (Examples 6-8); type: cell-based, human; settings: 0-8 μg/ml AMR for 48 hours
Experimental: (§5) Cytotoxicity assay (Examples 6-8). MTT assay was used to determine drug sensitivity (Hansen, M. B. et al. J Immunol Methods, 1989, 119:203-210). Cells (1×10^4) were grown in 96-well plates and after 48 hours, the medium was replaced with new medium. The cells were incubated at 37° C. with varying concentrations of AMR for 48 hours at 37° C. Cell viability was then assayed by adding MTT dye (500 μg/ml). Six hours after incubation period, MTT containing medium was removed. The formazan crystals were dissolved in 100 μl/well dimethyl sulfoxide, and the plates were read in BIO-RAD Benchmark Microplate Reader at 570 nm wavelength. All experiments were repeated three times with three replications in each and the mean values were estimated. Student's t test was used to determine the significant difference between IC50 values.

[19] = system: MCF-7/TH; assay: MTT cytotoxicity assay (Examples 6-8); type: cell-based, human; settings: 0-8 μg/ml AMR for 48 hours
Experimental: as §5

[20] = system: MCF-10A; assay: MTT cytotoxicity assay (Examples 6-8); type: cell-based, human; settings: 0-8 μg/ml AMR for 48 hours
Experimental: as §5

[21] = system: CEM; assay: Cellular DOX content by flow cytometry; type: cell-based, human; settings: DOX 2 μg/ml with 1 or 2 μg/ml AMR
Experimental: (§6) Cellular DOX Content. […] Cellular DOX fluorescence was analyzed in a Coulter Elite flow cytometer. Fluorescence emission (above 530 nm) from at least 10,000 cells were collected, amplified and scaled to generate a single parameter histogram (Ramachandran, C. et al. Biochem Phammacol, 1995, 49:545-552).

[22] = system: CEM/VLB; assay: Cellular DOX content by flow cytometry; type: cell-based, human; settings: DOX 2 μg/ml with 1 and 2 μg/ml AMR
Experimental: as §6

[23] = system: SW620/Ad-300; assay: Cellular DOX content by flow cytometry; type: cell-based, human; settings: DOX 2 μg/ml with 1 and 2 μg/ml AMR
Experimental: as §6

[24] = system: SW620; assay: Cellular DOX content by flow cytometry; type: cell-based, human; settings: DOX 2 μg/ml with 1 or 2 μg/ml AMR
Experimental: as §6

[25] = system: MCF-7; assay: Caspase-8 (LETD) activity by flow cytometry; type: cell-based, human; settings: AMR 1-8 μg/ml, 48 hours
Experimental: (§7) Detection of apoptosis and caspase activity. Breast carcinoma or breast epithelial cells were incubated for 48 hours in the presence or absence of AMR (1-8 μg/ml). AMR-induced apoptosis was evaluated by Fluorescein Caspase (VAD) Activity Kit and caspase-8 (LETD) Activity Kit according to manufacturer's instructions ([…]-Calvo, M. et al. J Biol Chem, 1998, 273:32608-32613).

[26] = system: MCF-7/TH; assay: Caspase-8 (LETD) activity by flow cytometry; type: cell-based, human; settings: AMR 1-8 μg/ml, 48 hours
Experimental: as §7

[27] = system: MCF-10A; assay: Caspase-8 (LETD) activity by flow cytometry; type: cell-based, human; settings: AMR 1-8 μg/ml, 48 hours
Experimental: as §7

[28] = system: SW620; assay: MTT cytotoxicity assay (Examples 1-5); type: cell-based, human; settings: mean ± SD (n = 3), read-out: AMR IC50
From the text: Cell proliferation kit I (MTT) from Roche Diagnostics GmbH (Indianapolis, Ind.) was used for cytotoxicity assays and manufacturers protocol was followed for the assay.

DNase [reference compound]
apoptotic cells (TUNEL) ([1]; DNase-treated positive control): more than 95% | apoptotic cells (TUNEL) ([2]; DNase-treated positive control): more than 95% | apoptotic cells (TUNEL) ([3]; DNase-treated positive control): more than 95%

COc1cccc2c1C(=O)c1c(O)c3c(c(O)c1C2=O)C[C@@](O)(C(=O)CO)C[C@@H]3O[C@H]1C[C@H](N)[C@H](O)[C@H](C)O1 [DOX, Doxorubicin hydrochloride, reference compound]
IC50 ([4]; Homo sapiens, CCRF-CEM, read-out: DOX IC50, 48 hours exposure): 0.12 µg/mL | IC50 ([4]; Homo sapiens, CCRF-CEM, read-out: DOX IC50, mean ± SD (n = 3)): 0.23 ± 0.02 µM | resistance to DOX ([5]; CEM/VLB versus CEM): approximately 112 fold | IC50 ([5]; Homo sapiens, read-out: DOX IC50, CEM/VLB, 48 hours exposure): 13.4 µg/mL | IC50 ([5]; Homo sapiens, read-out: DOX IC50, CEM/VLB, mean ± SD (n = 3)): 23.1 ± 0.78 µM | IC50 ([6]; Homo sapiens, SW620/AD300, read-out: DOX IC50, SW620/Ad-300): 28.9 ± 0.95 µM | resistance to DOX ([6]; SW620/Ad-300 versus SW620, based on IC50 values): approximately 125 fold | Survival (%) ([7]; 2 mg/kg): 83.3%

CC1(C)CC[C@]2(C(=O)O)CC[C@]3(C)C(=CC[C@@H]4[C@@]5(CO)CCC(=O)C(C)(C)[C@@H]5CC[C@]43C)[C@@H]2C1 [AMR, 25-hydroxy-3-oxoolean-12-en-28-oic acid]
IC50 ([4]; mean ± SD (n = 3), read-out: AMR IC50): 5.31 ± 0.02 µM | Modulator Index (MI = fold decrease in resistance/modulator in μM concentration) ([5]; CEM/VLB): 40 | resistance to AMR ([5]; CEM/VLB versus CEM): 1.9 fold | IC50 ([5]; CEM/VLB, mean ± SD (n = 3), read-out: AMR IC50): 10.2 ± 0.11 µM | Modulator Index (MI = fold decrease in resistance/modulator in μM concentration) ([6]; SW620/Ad-300): 41.6 | IC50 ([6]; SW620/Ad-300, read-out: AMR IC50): 12.7 ± 0.27 µM | resistance to AMR ([6]; SW620/Ad-300 versus SW620): 1.6 fold | accumulation in G2+M phase population [8]: 12.4%-32.2% | accumulation in G2+M phase population [9]: 12.4%-32.2% | G2/M phase arrest [10]: does not induce any G2/M phase arrest | DNA ladder pattern ([11]; 1 μg/ml AMR for 48 hours): highly visible | DNA ladder pattern ([11]; AMR treatment for 48 hours): distinct ladder pattern | DNA ladder pattern ([12]; 1 μg/ml AMR for 48 hours): highly visible | DNA ladder pattern ([12]; AMR treatment for 48 hours): distinct ladder pattern | DNA fragmentation ([13]; 1 μg/ml AMR for 48 hours): almost undetectable | DNA ladder pattern ([13]; AMR treatment for 48 hours): less distinct | percentage of G2+M cells [14]: 61.1% | percentage of G2+M cells [15]: 48.7% | G2+M percentage [16]: 52.8% | G2+M percentage [17]: 59.5% | IC50 [18]: 3.8 µg/mL (≈ 8.07 µM) | IC50 [19]: 6.8 µg/mL (≈ 14.4 µM) | IC50 [20]: 6.9 µg/mL (≈ 14.7 µM) | cellular DOX fluorescence [21]: No significant change | cellular DOX accumulation [22]: increased cellular DOX accumulation in a dose-dependent manner | cellular DOX accumulation [23]: increased cellular DOX accumulation in a dose-dependent manner | cellular DOX fluorescence [24]: No significant change | Survival (%) ([7]; 2 mg/kg): 83.3% | Therapeutic ratio ([7]; 2 mg/kg): 61.3** | Survival (%) ([7]; 5 mg/kg): 57.1% | Therapeutic ratio ([7]; 5 mg/kg): 37.6** | Survival (%) ([7]; 10 mg/kg): 57.1% | Therapeutic ratio ([7]; 10 mg/kg): 41.9** | tumor growth rate ([7]; AMR 2-10 mg/kg intraperitoneal, compared to doxorubicin (2 mg/kg) or saline): significantly reduced tumor growth rate | cells with caspase activation (caspase-8 positive cells) [25]: 40.8-71% | cells with caspase activation (caspase-8 positive cells) [26]: 28.5-43.2% | cells with caspase activation (caspase-8 positive cells) [27]: 4-32.8% | cells with DNA fragmentation (TUNEL) ([1]; AMR 1-8 μg/ml, 48 hours): 37.3-72.1% | cells with DNA fragmentation (TUNEL) ([2]; AMR 1-8 μg/ml, 48 hours): 32-48.7% | cells with DNA fragmentation (TUNEL) ([3]; AMR 1-8 μg/ml, 48 hours): 0-37.1% | IC50 [28]: 7.7 ± 0.15 µM
